Assay results from paper PMC9838834, “Improvement of Antialveolar echinococcosis efficacy of novel Albendazole-Bile acids Derivatives with Enhanced Oral Bioavailability” (PLOS Neglected Tropical Diseases, 2023).

Assays:
[1] = background statement; cited from earlier work
[2] = system: alveolar echinococcosis; parameters: method as in PMID 18938096; details: AE patients; cited from earlier work
[3] = Stability in rat plasma (UHPLC-MS method validation, S4 Table); type: in vitro ADME
Method: A Dionex Ultimate 3000 RSLC system (Thermofisher) combined with an Accucore aQ C18 column (150 mm×2.1 mm, 2.6 μm, Thermo fisher) was used in the sample separation process. The separation speed was set at […] for all gradients. 1 μL of injection volume and a constant temperature of (25 ± 1°C were set for the column. The eluents were A, water with 0.1% formic acid (v/v) and B, methanol; the gradient program was as follows: 0–6 min, 8–40% B; 6–8 min, 40–100% B; 8–10 min, 100% B; 10–11 min, 100–8% B; 11–13 min, 8% B.
Heated electro-spray ionization (HE-SI) was paired with a Q-Orbitrap MS in the MS analysis. The flow rate of auxiliary, sheath and sweep gas was set at 35, 10, and 1 (arbitrary unit), respectively. A full MS-ddMS^2 mode was used to perform the analysis. The damping gas in the C-trap and nitrogen was used to stabilize the spraying. Temperatures of 350°C and 320°C were set and kept for the auxiliary gas heater and capillary. Under negative mode, 3.0 kV was adopted for the spray voltage, 60 V was used for the S-lens RF level, 50 ms was used for the maximum injection time, and 3.0 ^e6 was set as the automatic gain control target. Full MS-ddMS^2 scan ranged from 150.0000 to 800.0000 m/z. Precise molecular weight […] was used for qualitative analysis, the corresponding peak area was used for quantitative analysis, and MS^2 fragments were used for further qualitative analysis.
Plasma samples were thawed at room temperature, and 100 μL was added to an equal volume of mass spectrometry grade methanol, vortexed for 1 min, and centrifuged again at 13000 rpm for 5 min. 100 μL of the supernatant were added to 100 μL of 200 ng/mL mebendazole IS solution, vortexed for 1 min, and centrifuged again at 13000 rpm for 5 min. The resulting sample was injected by UHPLC-HR-ESI-MS with an injection volume of 1 μL. The pharmacokinetic study of SD rats was performed according to the standards recommended by the "Guidelines for the Care and Use of Laboratory Animals" (Animal Laboratory Resources Institute, 1995) and was approved by the Institutional Animal Care and Use Committee of Qinghai University.
Supplementary file pntd.0011031.s004.xlsx: S4 Table The stability for the determination of total alkaloid in rat plasma. (XLSX) Click here for additional data file.

[4] = Determination of equilibrium solubility (HPLC); type: physicochemical; details: 48 h, pH 7.4
Method: An excess amount of ABZ-BA and ABZ were equilibrated in sodium phosphate buffer, pH 7.4, at 37°C for 48 h. The supernatant was separated from excess solid in solution by ultracentrifugation at 40000 rpm. Subsequently, the supernatant was diluted, and the solution concentration was determined using high-performance liquid chromatography (HPLC) (Shimadzu LC- 20AT, Kyoto, Japan). The chromatographic separation was performed with Diamonsil C18 (4.6×150 mm, 5 μm, Waters, Massachusetts, USA). ABZ-BA and ABZ were detected by ultraviolet (UV) absorbance detection at a wavelength of 240 nm. The mobile phase was methanol /water (70/30 v/v) and the flow rate was 1 mL/min. The injection volume was 20 μL.

[5] = system: protoscolex (PSCs); assay: Caspase 3 in supernatant of PSC culture medium; type: cell-based, E. multilocularis; details: 5 days after treatment
[6] = system: protoscolex (PSCs); assay: Alkaline phosphatase in supernatant of PSC culture medium; type: cell-based, E. multilocularis; details: 5 days after treatment, same concentration as ABZ / ABZ-SO
[7] = system: secondary hepatic alveolar echinococcosis (E. multilocularis); assay: In vivo therapeutic efficacy in an in-situ AE animal model (lesion volume); details: AE model rats
Method: Six-week-old […] weighing 200-250g were purchased from a market (Weitong Lihua Laboratory Animal Technology Co., Ltd, Beijing, China). The rats were injected with protoscolex (PSC) suspension (1000–2000) PSCs/mL×0.1 mL/each using the open-abdominal direct liver puncture method. The modeling quality was confirmed by Mindray’s Resona7 color Doppler ultrasound system. The lesion volume was calculated by the length (X) and width (Y) of its ultrasound transverse section and the width (Z) of its longitudinal section, X·Y·Z. Rats with relatively uniform lesion volumes were selected as model animals for further experiments (Fig 1). All animal-related experiments were approved by the Animal Care and Utilization Committee (IACUC) of Qinghai University. The animals were housed in a room with controlled temperature (25 ± 2°C) with light-cycled (12 h light/dark cycle). Food and water were provided ad libitum.
At the 16th week after establishing an experimental secondary AE in rats, we divided the model rats into three groups. The first is the control group, with six infected rats were received with CMC-Na of 0.9% saline. In the second group, rats were received with 0.2 mL of Albenda suspension. In the third group, rats were received with 0.2 mL of ABZ-BA suspension. The three groups were administered by gavage with the dosage of 25 mg/kg/d, which was calculated according to the equivalent dose convert ratio between humans and animals based on the surface body area of humans. After a 30-day, once-daily oral administration, the liver tissue lesions were obtained and weighed to evaluate the cyst inhibition rate after one month of administration.

[8] = system: Hep-G2 cell line; assay: Cytotoxicity in Hep-G2 cell line; type: cell-based, human; details: ABZ-BA with different carbon chain lengths (C1, C4 linker), data not shown
Description: Since this part of data will be published in other manuscripts, it is not shown in this manuscript.

[9] = nominal 1.58 (ABZ-BA) / 1.57 (ABZ) ng/mL
[10] = nominal 25.25 (ABZ-BA) / 25.18 (ABZ) ng/mL
[11] = nominal 101 (ABZ-BA) / 100.78 (ABZ) ng/mL
[12] = after 1 month of oral administration

Structure (SMILES): CCCSc1ccc2nc(NC(=O)OC)[nH]c2c1 [ABZ, Albendazole]
- oral bioavailability [1]: < 5%
- clinical improvement after administration [2]: two-thirds of AE patients show moderate improvement
- Measured (mean ± SD), 4℃ for 24 h [3, 9]: 1.53 ± 0.08 ng/mL
- Measured (mean ± SD), Room temperature for 24 h [3, 9]: 1.56 ± 0.13 ng/mL
- Measured (mean ± SD), Three freeze [3, 9]: 1.59 ± 0.15 ng/mL
- Measured (mean ± SD), at -80℃ for 15 days [3, 9]: 1.56 ± 0.07 ng/mL
- Measured (mean ± SD), 4℃ for 24 h [3, 10]: 25.65 ± 0.53 ng/mL
- Measured (mean ± SD), Room temperature for 24 h [3, 10]: 24.87 ± 0.34 ng/mL
- Measured (mean ± SD), Three freeze [3, 10]: 25.56 ± 0.56 ng/mL
- Measured (mean ± SD), at -80℃ for 15 days [3, 10]: 25.34 ± 1.18 ng/mL
- Measured (mean ± SD), 4℃ for 24 h [3, 11]: 104.63 ± 2.81 ng/mL
- Measured (mean ± SD), Room temperature for 24 h [3, 11]: 98.90 ± 3.53 ng/mL
- Measured (mean ± SD), Three freeze [3, 11]: 106.20 ± 1.36 ng/mL
- Measured (mean ± SD), at -80℃ for 15 days [3, 11]: 108.56 ± 1.18 ng/mL

Structure (SMILES): CCCSc1ccc2[nH]c(NC(=O)NCCCCOC(=O)CCC(C)C3CCC4C5C(O)CC6CC(O)CCC6(C)C5CC(O)C34C)nc2c1 (centres unmarked) [ABZ-BA]
- equilibrium solubility of ABZ-BA relative to ABZ in vitro [4]: 4 fold
- solubility of ABZ-BA relative to ABZ [4]: about 12 times
- content of caspase 3 in supernatant of PSC culture medium vs positive control group [5]: significantly higher
- apoptotic effect on PSCs, dependence on concentration ([5]; 13.45-53.8 μg/mL): concentration-dependent
- ALP in supernatant of PSC culture medium vs positive control group [6]: no significant difference
- lesion volume ([7]; 25 mg/kg/d by gavage, after 4 weeks of administration, n = 6, ultrasound X·Y·Z): 0.35±0.18 cm^3
- effect of ABZ-BA group relative to Albenda [7, 12]: 2.7 fold
- therapeutic effect [7, 12]: significant therapeutic effect
- cytotoxicity compared with ABZ [8]: the same cytotoxicity as ABZ
